Legend:
Recombinant Tdp1 [1] = molecular target: T1, Recombinant Tdp1 (Homo sapiens (Human), UniProt Q9NUW8); test: AlphaScreen Tdp1 assay (qHTS, FITC/biotin phosphotyrosine DNA substrate); format: biochemical
Procedure: Tween-20, KCl, fluorescein isothiocyanate (FITC), and PBS were procured from Sigma-Aldrich. DMSO certified ACS grade was obtained from Fisher. The AlphaScreen FITC/streptavidin detection kit was from PerkinElmer Life and Analytical Sciences (Waltham, Mass.). Assay buffer consisted of PBS, pH 7.4, 80 mM KCl and 0.05% Tween-20. Recombinant Tdp1 was expressed and purified as described elsewhere (Antony et al., Nucleic Acids Research 35:4474-4484 (2007). The Sigma-Aldrich LOPAC^1280 library of 1280 known bioactives was received as DMSO solutions at initial concentration of 10 mM and plated as described elsewhere (Inglese et al., Proc. Natl. Acad. Sci. USA 103:11473-11478 (2006); Yasgar et al., J. Assoc. Lab. Automat. 13:78-89 (2008)).
The biotinylated phosphotyrosine deoxyoligonucleotide (5′ biotin-[…]-pY) was synthesized, purified, and QC-tested by Midland Certified Reagent Company, Midland, Tex. Standard overnight 4° C. FITC coupling was performed in-house. The FITC-labeled substrate was purified on Biospin-6 desalting columns (Bio-Rad, Hercules, Calif.) and its concentration was determined by UV-vis spectrophotometry.
Assay reaction mixtures and substrate/beads titrations were initially performed at 20 μl final volume in 384-well plates. For the subsequent 1,536-well based experiments, Flying Reagent Dispenser (FRD, Aurora Discovery, presently Beckman-Coulter) was used to dispense reagents into the assay plates, while a pintool was used to deliver DMSO solutions of the test inhibitors. Plates were read on Envision plate reader (PerkinElmer) equipped with AlphaScreen optical detection module. For testing the effect of enzyme reaction conditions on the IC50 values for select inhibitors, the respective compounds were prepared as 24-point twofold intra-plate dilution series and assayed as described.
Three μl of reagents (buffer in columns 3 and 4 as negative control and 1.33 nM Tdp1 in columns 1, 2, 5-48) were dispensed into 1,536-well black solid bottom plate. Compounds (final concentrations in the range of 0.7 nM to 57 μM) were transferred via Kalypsys pintool equipped with 1,536-pin array. The plate was incubated for 15 min at room temperature, and then 1 μl of substrate (15 nM final concentration) was added to start the reaction. After 5 min incubation at room temperature, 1 μl of bead mix (15 μg/mL final concentration) was added and the plate was further incubated for 10 min at room temperature prior to signal measurement. Substrate and beads were prepared and kept in amber bottles to prevent photo-degradation. Library plates were screened starting from the lowest and proceeding to the highest concentration. Vehicle-only plates, with DMSO being pin-transferred to the entire column 5-48 compound area, were included at the beginning and the end of the screen in order to record any systematic shifts in assay signal. Screening data were corrected, normalized, and curve-fitted by using in-house developed algorithms.
To configure an assay for Tdp1, we utilized the ability of the AlphaScreen system to report on the integrity of the phosphotyrosine-based substrate, viewed here as a multi-site analyte. The AlphaScreen signal is a direct consequence of the close proximity of donor and acceptor beads, which is achieved by the formation of a ternary donor-analyte-acceptor recognition complex. To realize the AlphaScreen assay using the consensus DNA-pY substrate for Tdp1, 5′[…]pY, recognition elements for both bead types had to be introduced. To this end, we coupled a fluorescein isothiocyanate (FITC) to the amino group of tyrosine in a phosphotyrosine-containing single stranded DNA substrate bearing a biotin at its 5′ end. […] Conversely, if the Tdp1 catalysis was inhibited, an elevated signal would be observed for that sample.

Recombinant Tdp1 [2] = molecular target: T1, Recombinant Tdp1; test: Secondary radiolabel gel-based Tdp1 assay (N14Y substrate); format: biochemical
Procedure: One nanomolar of 5′-^32P-labeled substrate (N14Y; 5′-[…]-Tyrosine-3′) was incubated with 0.1 nM recombinant Tdp1 in the absence or presence of inhibitor for 20 min at 25° C. in a reaction buffer containing 50 mM Tris-HCl (pH 7.5), 80 mM KCl, 2 mM EDTA, and 40 μg/ml BSA. Reactions were terminated by the addition of one volume of gel loading buffer (96% (v/v) formamide, 10 mM EDTA, 1% (w/v) xylene cyanol and 1% (w/v) bromphenol blue). The samples were subsequently heated to 95° C. for 5 min and subjected to 20% denaturing PAGE. When the Tdp1 mutant H493R (100 nM) was employed, the reactions were stopped with one volume of SDS loading dye and analyzed by 4-20% SDS-PAGE. All gels were dried and exposed on a PhosphorImager screen. Imaging and quantification were done using a Typhoon 8600 and ImageQuant software (GE Healthcare, Piscataway, N.J.).
Activity of certain compounds was also tested in secondary radiolabel gel-based assays (Inamdar et al., J. Biol. Chem. 277:27162-27168 (2002); Davies et al., J. Mol. Biol. 324:917-932 (2002)).

[3] = 1,536-well AlphaScreen qHTS, N/D = not detectable, read-out: Activity (qHTS) IC50
[4] = 1 nM N14Y, 0.1 nM Tdp1, 20 min at 25° C., N/D = not detectable, read-out: Activity (Gel)

T1 sequence (Q9NUW8 whole entry): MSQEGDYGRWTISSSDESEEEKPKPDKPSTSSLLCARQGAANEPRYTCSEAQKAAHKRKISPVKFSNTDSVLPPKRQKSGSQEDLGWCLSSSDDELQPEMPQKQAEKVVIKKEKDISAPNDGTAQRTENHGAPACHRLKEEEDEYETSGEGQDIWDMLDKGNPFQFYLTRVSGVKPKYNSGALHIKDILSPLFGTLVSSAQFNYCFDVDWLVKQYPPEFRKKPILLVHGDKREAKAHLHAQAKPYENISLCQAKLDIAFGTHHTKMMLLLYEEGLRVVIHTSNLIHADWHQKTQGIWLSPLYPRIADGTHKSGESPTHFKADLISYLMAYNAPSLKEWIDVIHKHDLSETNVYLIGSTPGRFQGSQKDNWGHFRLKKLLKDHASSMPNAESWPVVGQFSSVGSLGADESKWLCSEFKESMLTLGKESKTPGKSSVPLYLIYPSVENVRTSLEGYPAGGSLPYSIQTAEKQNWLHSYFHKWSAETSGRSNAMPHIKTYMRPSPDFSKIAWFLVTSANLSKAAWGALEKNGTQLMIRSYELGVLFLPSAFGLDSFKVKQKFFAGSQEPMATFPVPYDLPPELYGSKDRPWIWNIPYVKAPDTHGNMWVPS

| SMILES | IC50 (Recombinant Tdp1 [1]; [3]) | IC50 (Recombinant Tdp1 [2]; [4]) | also measured |
| --- | --- | --- | --- |
| CN(C)C1C(O)=C(C(N)=O)C(=O)[C@@]2(O)C(O)=C3C(=O)c4c(O)cccc4[C@@](C)(O)C3C[C@@H]12 (some centres unmarked) | 10 µM |  |  |
| CN(C)[C@@H]1C(O)=C(C(N)=O)C(=O)[C@]2(O)C(O)=C3C(=O)c4c(O)ccc(Cl)c4[C@](C)(O)[C@H]3C[C@@H]12 | 2.82 µM | 13.2 µM |  |
| CN(C)C1C(O)=C(C(N)=O)C(=O)[C@@]2(O)C(O)=C3C(=O)c4c(O)cccc4[C@@](C)(O)C3CC12.Cl (some centres unmarked) |  |  | Activity (qHTS) IC50 (Recombinant Tdp1 [1]; 1,536-well AlphaScreen qHTS, N/D = not detectable): IC50: N/D |
| CN(C)[C@@H]1C(=O)C(C(N)=O)=C(O)[C@@]2(O)C(O)=C3C(=O)c4c(O)cccc4[C@@](C)(O)[C@H]3[C@H](O)[C@@H]12 |  |  | IC50 (Recombinant Tdp1 [1]): 0.4 µM |
| [O]=[V]([O-])([O-])[O-] [vanadate, reference compound] |  |  | Tdp1 inhibition potency range (Recombinant Tdp1 [1]; AlphaScreen assay set-up in 384-well plates): sub-millimolar |
| CN(C)[C@H]1C(O)=C(C(N)=O)C(=O)[C@]2(O)C(O)=C3C(=O)c4c(O)cccc4[C@@](C)(O)[C@H]3C[C@@H]12 | 14.1 µM | 10 µM |  |
| CN(C)[C@H]1C(O)=C(C(=O)NCN2CCCC2)C(=O)[C@]2(O)C(O)=C3C(=O)c4c(O)cccc4[C@](C)(O)[C@H]3C[C@H]12 | 0.2 µM |  | IC50 (Recombinant Tdp1 [2]; 1 nM N14Y, 0.1 nM Tdp1, value printed with question mark, read-out: Activity (Gel)): < 0.1 µM |
| CN(C)C1C(=O)C(C(N)=O)C(=O)C2(O)C(=O)C3C(=O)c4c(O)cccc4C(C)(O)C3C(O)C12 (centres unmarked) |  |  | IC50 (Recombinant Tdp1 [1]): 0.2 µM; IC50 (Recombinant Tdp1 [2]): 5 µM |

More lines, main results first:

| IC50 (Recombinant Tdp1 [1]; [3]) | IC50 (Recombinant Tdp1 [2]; [4]) | SMILES | also measured |
| --- | --- | --- | --- |
| 1.59 µM |  | CN(C)[C@@H]1C(O)=C(C(N)=O)C(=O)[C@]2(O)C(O)=C3C(=O)c4c(O)cccc4[C@@](C)(O)[C@H]3[C@H](O)[C@@H]12 |  |
| 0.63 µM | 8 µM | CN(C)C1C(O)=C(C(N)=O)C(=O)[C@@]2(O)C(O)=C3C(=O)c4c(O)cccc4[C@](C)(O)C3C(O)C12 (some centres unmarked) |  |
| 0.71 µM |  | CN(C)[C@@H]1C(O)=C(C(=O)NCN2CCCC2)C(=O)[C@@]2(O)C(O)=C3C(=O)c4c(O)cccc4[C@@](C)(O)C3CC12 (some centres unmarked) |  |
| 12.6 µM |  | CN(C)[C@H]1C(O)=C(C(=O)NCN[C@@H](CCCCN)C(=O)O)C(=O)[C@]2(O)C(O)=C3C(=O)c4c(O)cccc4[C@@](C)(O)[C@H]3C[C@@H]12 |  |
| 3.16 µM | 20 µM | CN(C)C1C(O)=C(C(N)=O)C(=O)[C@@]2(O)C(O)=C3C(=O)c4c(O)ccc(Cl)c4[C@](C)(O)C3CC12 (some centres unmarked) |  |
| 0.5 µM |  | CN(C)[C@@H]1C(O)=C(C(N)=O)C(=O)[C@@]2(O)C(O)=C3C(=O)c4c(O)cccc4[C@@](C)(O)[C@H]3[C@H](O)[C@@H]12 |  |
| 4.47 µM | 3 µM | CN(C)C1C(O)=C(C(N)=O)C(=O)[C@@]2(O)C(O)=C3C(=O)c4c(O)cccc4[C@@](C)(O)C3[C@H](O)C12 (some centres unmarked) |  |
| 3.16 µM | 10 µM | CN(C)C1C(O)=C(C(N)=O)C(=O)[C@]2(O)C(O)=C3C(=O)c4c(O)cccc4[C@](C)(O)C3C(O)C12 (some centres unmarked) |  |
| 1.26 µM | 30.2 µM | CN(C)[C@H]1C(O)=C(C(=O)NCN2CCCC2)C(=O)[C@]2(O)C(O)=C3C(=O)c4c(O)cccc4[C@@](C)(O)[C@H]3C[C@@H]12 |  |

Reference: patent US8865686B2, “Tetracycline compounds as tyrosyl-DNA phosphodiesterase I inhibitors” (The United States of America, as Represented by the …, priority 2006, dated 2014)
